Where two headings read alike, the source gives them in different places.
What was measured:
[1] = Phase 1 food effect study (Part 2), single 20-mg oral dose of Compound A tablet, fed vs fasted; assay type: in vivo, human; details: for CL/F / AUC(0-inf) / Cmax / half-life / AUC(0-t) / Vd/F: geometric mean; for Tmax / AUC(0-inf) / Cmax / half-life / AUC(0-t) / Vd/F: male, human, plasma, 20 mg; for AUC(0-t): read-out: AUC0-24; for Vd/F: read-out: Vz/F
Procedure: The primary objectives of this study are: to characterize the biotransformation and excretion of Compound A following a single 20 mg oral dose of Compound A capsule containing a microtracer of [^14C]-Compound A solution in healthy male subjects (Part 1) and to evaluate the effect of a high-fat meal on the pharmacokinetics (PK) of Compound A following a single oral 20-mg dose of Compound A tablet (Part 2).
Part 2 design: Part 2 will be a 2-period crossover study; in Period 1, subjects (n=12) will be randomized to receive either an oral 20 mg dose of Compound A tablet (Treatment B) under fed (n=6) or fasted (n=6) conditions. In Period 2, subjects will receive Treatment B under converse conditions based on treatment assignment in Period 1. After screening, subjects (n=12) eligible for participation in the study will return to the study center on Day −1 for baseline assessments. Subjects who continue to be qualified for participation in the study will be randomized and enrolled in the study on the morning of Day 1. Subjects (n=6) will be enrolled and randomized to receive Treatment B under fed or fasted conditions on the morning of Day 1 after fasting for at least 8 hours. Fed subjects will be served a standard high fat meal breakfast, or its equivalent, that must be consumed within 30 minutes from serving. Dosing must occur 30 minutes (+5 minutes) after serving a subject breakfast. All subjects (fed and fasted) will fast (not to consume any food) until 4 hours post dose. Water will be allowed during the fasting period. Subjects will be domiciled at the study center from Day −1 until the morning of Day 5 of each period. Subjects will be discharged from the study center on the morning of Day 5 upon satisfactory safety review and completion of study-related procedures. Safety and tolerability data will be monitored and collected following each dosing period. Periods 1 and 2 will be separated by a washout period of at least 7 days (no more than 10 days) from prior dose to the next dose. In certain instances, a longer washout may be acceptable if previously agreed to.
Serial blood samples (10 mL) will be collected at predose (0 hour) and at 0.5, 1, 2, 3, 6, 12, 24, 48, 72 and 96 hours post dose for the determination of plasma concentrations of Compound A and the O-desmethyl metabolite of Compound A. Safety will be monitored throughout the study; safety evaluations will include AE reporting, physical examinations, vital sign measurements, ECG, and clinical laboratory safety tests. Concomitant medications will be assessed and recorded throughout the study as well. In addition, during the subjects' stay-in-the clinic (i.e., confinement period), fasting plasma glucose levels will be monitored as part of the clinical laboratory safety tests. For Parts 1 and 2, all subjects will return to the clinic within 7 to days after the last dose for follow up safety assessments. In the event that a subject discontinues prematurely from the study, every reasonable effort should be made (and documented) to ensure that all procedures and evaluations scheduled for the follow-up visit are performed at the time of discontinuation or a follow-up visit should be scheduled within 7 to days from the discontinuation day.
Part 2 dosing: In Part 2, subjects will fast overnight for at least 8 hours prior to Compound A administration. On the morning of Day 1, each subject will receive a 20-mg tablet of Compound A orally. Subjects randomized to receive Compound A under fed conditions will be a served a standard high fat meal (breakfast).
The standard high fat meal or its equivalent must be consumed within minutes of serving. Dosing must occur 30 minutes (+5 minutes) after serving the meal. The tablet will be administered with approximately 240 mL of non-carbonated, room temperature water. After dosing, subjects will continue to fast until 4 hours after dosing.

[2] = Pharmacokinetics of the metabolite produced in vivo after administration of 7.5-60 mg Compound A; details: human; for AUC(0-t): read-out: AUC0-24; for concentration at 15 day: read-out: Ctrough
Procedure: In certain embodiments, the pharmacokinetic parameters in connection with the metabolite of Compound A produced via administration of 7.5 mg, 15 mg, 30 mg, 45 mg and 60 mg of Compound A are obtained using the protocol set forth in Section 5.2.1 (paragraphs [00497]-[00520]) of U.S. provisional application No. 61/653,436, filed May 31, 2012, which is incorporated by reference herein in its entirety.
In certain embodiments, the pharmacokinetic parameters set forth herein are mean values obtained from multiple subjects.
In certain embodiments, the metabolite of Compound A is the O-desmethyl metabolite.

[3] = fed vs fasted, healthy adult males, 20 mg Compound A
[4] = po, Fasted (n = 11), single 20-mg oral dose of Compound A tablet
[5] = po, Fed (n = 11, high fat meal), single 20-mg oral dose of Compound A tablet
[6] = 7.5 mg, day 1 of administration of about 7.5 mg of Compound A
[7] = 7.5 mg, on day (number not given) of once a day administration of about 7.5 mg of Compound A
[8] = 15 mg, day 1 of administration of about 15 mg of Compound A
[9] = 15 mg, on day (number not given) of once a day administration of about 15 mg of Compound A
[10] = 30 mg, day 1 of administration of about 30 mg of Compound A
[11] = 30 mg, day 15 of once a day administration of about 30 mg of Compound A
[12] = 45 mg, day 1 of administration of about 45 mg of Compound A
[13] = 45 mg, day 15 of once a day administration of about 45 mg of Compound A
[14] = 60 mg, day 1 of administration of about 60 mg of Compound A
[15] = 60 mg, day 15 of once a day administration of about 60 mg of Compound A

Compound: CC(C)(O)c1ccc(-c2cnc3c(n2)N([C@H]2CC[C@H](O)CC2)C(=O)CN3)cn1 [O-Desmethyl metabolite, 1-((1r,4r)-4-hydroxycyclohexyl)-7-(6-(2-hydroxypropan-2-yl)pyridin-3-yl)-3,4-dihydropyrazino[2,3-b]pyrazin-2(1H)-one]
- CL/F ([1]; Fasted (n = 11), single 20-mg oral dose of Compound A tablet): 2.0 L/h
- CL/F ([1]; Fed (n = 11, high fat meal), single 20-mg oral dose of Compound A tablet): 2.0 L/h
- decrease in Cmax with a high fat meal [1, 3]: ~17%
- increase in overall exposure (AUCinf) with a high fat meal [1, 3]: ~3%
- Tmax ([1]; oral, fed vs fasted, healthy adult males, 20 mg Compound A, read-out: delay in Tmax with a high fat meal): 3 h
- Tmax ([1]; po, Fasted (n = 11), single 20-mg oral dose of Compound A tablet, healthy adult males, median, read-out: Tmax): 3 h
- AUC(0-inf) [1, 4]: 9830 ng·h/mL
- Cmax [1, 4]: 425 ng/mL
- half-life [1, 4]: 14.8 h
- AUC(0-t) [1, 4]: 6400 ng·h/mL
- Vd/F [1, 4]: 34.7 L
- AUC(0-inf) [1, 5]: 10100 ng·h/mL
- Cmax [1, 5]: 364 ng/mL
- half-life [1, 5]: 14.9 h
- AUC(0-t) [1, 5]: 6270 ng·h/mL
- Vd/F [1, 5]: 42.6 L
- Tmax ([1]; po, Fed (n = 11, high fat meal), single 20-mg oral dose of Compound A tablet, median, read-out: Tmax): 6 h
- AUC(0-inf) [2, 6]: 7950 ng·h/mL
- Cmax [2, 6]: 143 ng/mL
- Tmax [2, 6]: 8 h
- half-life [2, 6]: 35 h
- AUC(0-t) [2, 6]: 2740 ng·h/mL
- AUC(0-inf) [2, 7]: 45600 ng·h/mL
- Cmax [2, 7]: 363 ng/mL
- Tmax [2, 7]: 2 h
- AUC(0-t) [2, 7]: 6400 ng·h/mL
- AUC(0-inf) [2, 8]: 5820 ng·h/mL
- Cmax [2, 8]: 309 ng/mL
- Tmax [2, 8]: 2 h
- half-life [2, 8]: 12 h
- AUC(0-t) [2, 8]: 3830 ng·h/mL
- AUC(0-inf) [2, 9]: 9750 ng·h/mL
- Cmax [2, 9]: 458 ng/mL
- Tmax [2, 9]: 3 h
- AUC(0-t) [2, 9]: 5680 ng·h/mL
- AUC(0-inf) [2, 10]: 27700 ng·h/mL
- Cmax [2, 10]: 776 ng/mL
- Tmax [2, 10]: 7 h
- half-life [2, 10]: 21 h
- AUC(0-t) [2, 10]: 13300 ng·h/mL
- AUC(0-inf) [2, 11]: 118000 ng·h/mL
- Cmax [2, 11]: 1770 ng/mL
- Tmax [2, 11]: 2 h
- AUC(0-t) [2, 11]: 29400 ng·h/mL
- AUC(0-inf) [2, 12]: 27300 ng·h/mL
- Cmax [2, 12]: 1150 ng/mL
- Tmax [2, 12]: 3 h
- half-life [2, 12]: 17 h
- AUC(0-t) [2, 12]: 15900 ng·h/mL
- AUC(0-inf) [2, 13]: 77700 ng·h/mL
- Cmax [2, 13]: 2240 ng/mL
- Tmax [2, 13]: 2 h
- AUC(0-t) [2, 13]: 32700 ng·h/mL
- AUC(0-inf) [2, 14]: 37500 ng·h/mL
- Cmax [2, 14]: 1440 ng/mL
- Tmax [2, 14]: 4 to 6 h
- half-life [2, 14]: 16 h
- AUC(0-t) [2, 14]: 21500 ng·h/mL
- AUC(0-inf) [2, 15]: 138000 ng·h/mL
- Cmax [2, 15]: 2520 ng/mL
- Tmax [2, 15]: 3 h
- AUC(0-t) [2, 15]: 46900 ng·h/mL
- concentration at 15 day ([2]; day 15 of once a day administration of about 30 mg of Compound A): 1100 ng/mL
- concentration at 15 day ([2]; day 15 of once a day administration of about 45 mg of Compound A): 1180 ng/mL
- concentration at 15 day ([2]; day 15 of once a day administration of about 60 mg of Compound A): 1470 ng/mL

Source: patent US9403829B2, “Pharmaceutical compositions of 7-(6-(2-hydroxypropan-2-yl)pyridin-3-yl)-1-((trans)-4-methoxycyclohexyl)-3,4-dihydropyrazino [2,3-b]pyrazin-2(1H)-one, a solid form thereof and methods of their use” (Signal Pharmaceuticals, LLC, priority 2011, dated 2016)
